Reference: patent publication US20260226059A1, “HETEROCYCLIC COMPOUNDS AS PI3Ka INHIBITORS” (Pikavation Therapeutics, Inc., priority 2023, published 2026)

System: T47D (PIK3CA H1047R) cells
Assay: PS473 AKT assay in T47D (PIK3CA H1047R) cells
Type: cell-based
Conditions: Homo sapiens, pSer473 AKT, DMEM with 2.5% FBS, compound treatment 2 h, read-out: T47D_IC50
Description: T47D (PIK3CA H1047R) cells were cultured using 10-cm petri dishes with recommended medium plus 10% fetal bovine serum. One day before the assay, cells were seeded in 96-well plates. After overnight incubation, the medium was changed to DMEM with 2.5% fetal bovine serum (FBS) and the cells were treated with different concentrations of the compounds for 2 h. Cells were then fixed using 4% paraformaldehyde at room temperature for 20 min. Aspirate 4% paraformaldehyde, and wash cells using 1× regular phosphate buffered saline 3 times, 5 min each. Aspirate any residual phosphate buffered saline and block cells using 10% goat serum containing 1% bovine serum albumin and 0.3% Triton X-100 at room temperature for 1 h. Without any additional washing, primary antibodies (rabbit anti-pSer473 AKT) were diluted using blocking buffer and added at a final volume of 50 microliter per well. Keep assay plates with primary antibodies overnight at 4° C. Wash cells using 1× regular phosphate buffered saline 3 times, 5 min each. After the final wash, incubate cells with horseradish peroxidase-conjugated secondary antibodies (goat Anti-rabbit IgG) diluted using the same blocking buffer at room temperature for 1 h. Wash cells thoroughly using 1× regular phosphate buffered saline 3 times, 5 min each. Aspirate any residual phosphate buffered saline. Add Super-Signal ELISA Pico Chemiluminescent Substrate at a final volume of 100 microliter per well. Read plates on i3x Multi-Mode Microplate Reader and calculate IC50 values using GraphPad Prism software.

Compound	IC50
CCN1CCn2c1nc1c(C(C)Nc3ccccc3C(=O)O)cc(C)cc1c2=O (centres unmarked) [Example 1, 2-((1-(1-Ethyl-7-methyl-5-oxo-1,2,3,5-tetrahydroimidazo[2,1-b]quinazolin-9-yl)ethyl)amino)benzoic acid]	1000 to 5000 nM
CCN1CCn2c1nc1c(C(C)Nc3ccc(Cl)nc3C(=O)O)cc(C)cc1c2=O (centres unmarked) [Example 2, 6-Chloro-3-((1-(1-ethyl-7-methyl-5-oxo-1,2,3,5-tetrahydroimidazo[2,1-b]quinazolin-9-yl)ethyl)amino)picolinic acid]	< 1000 nM
Cc1cc(C(C)Nc2ccccc2C(=O)O)c2nc3n(c(=O)c2c1)CCc1ccccc1-3 (centres unmarked) [Example 3, 2-((1-(10-Methyl-8-oxo-5,8-dihydro-6H-isoquinolino[1,2-b]quinazolin-12-yl)ethyl)amino)benzoic acid]	< 1000 nM
Cc1cc(C(C)Nc2ccc(C)nc2C(=O)O)c2nc3n(c(=O)c2c1)CCc1ccccc1-3 (centres unmarked) [Example 4, 6-Methyl-3-((1-(10-methyl-8-oxo-5,8-dihydro-6H-isoquinolino[1,2-b]quinazolin-12-yl)ethyl)amino)picolinic acid]	< 1000 nM
Cc1cc(C(C)Nc2ccc(Cl)nc2C(=O)O)c2nc3n(c(=O)c2c1)CCc1ccccc1-3 (centres unmarked) [Example 5, 6-Chloro-3-((1-(10-methyl-8-oxo-5,8-dihydro-6H-isoquinolino[1,2-b]quinazolin-12-yl)ethyl)amino)picolinic acid]	< 1000 nM
